# Assay results: US20220220123A1, “AMORPHOUS AND CRYSTALLINE FORMS OF RELUGOLIX” (DR. REDDY'S LABORATORIES LIMITED, priority 2019, published 2022)
# Assay: storage stability of solid forms of relugolix
# Format: physicochemical
Compound,stability (found stable; in words) (no storage conditions or duration printed),stability of the crystalline form on storage (2-8° C.),stability of the crystalline form on storage (25° C. and 60% RH (relative humidity)),stability of the crystalline form on storage (40° C. and 75% RH (relative humidity))
CONC(=O)Nc1ccc(-c2sc3c(c2CN(C)C)c(=O)n(-c2ccc(OC)nn2)c(=O)n3Cc2c(F)cccc2F)cc1 [amorphous relugolix],stable,,,
CONC(=O)Nc1ccc(-c2sc3c(c2CN(C)C)c(=O)n(-c2ccc(OC)nn2)c(=O)n3Cc2c(F)cccc2F)cc1 [crystalline form R1],,stable for at least three months,stable for at least three months,stable for at least three months
